From BindingDB's records for patent US20250313563 (The Broad Institute, 2025)
Where “and” joins values, the source holds several entries; their conditions need not be identical. Identical values can stand only once.

Experiments:
[1] = target: Glycogen synthase kinase-3 beta (Homo sapiens, UniProt P49841); assay: TR-FRET Assay
How it was run: (§1)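 Kinase activity, measured after a 30-minute compound preincubation, was stopped with EDTA and quantified by TR-FRET using a Tb-labelled pSer641 antibody paired with streptavidin-d2.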

[2] = target: Glycogen synthase kinase-3 alpha (Homo sapiens, UniProt P49840); assay: TR-FRET Assay
How it was run: as §1

Chain of Glycogen synthase kinase-3 beta (P49841 whole entry): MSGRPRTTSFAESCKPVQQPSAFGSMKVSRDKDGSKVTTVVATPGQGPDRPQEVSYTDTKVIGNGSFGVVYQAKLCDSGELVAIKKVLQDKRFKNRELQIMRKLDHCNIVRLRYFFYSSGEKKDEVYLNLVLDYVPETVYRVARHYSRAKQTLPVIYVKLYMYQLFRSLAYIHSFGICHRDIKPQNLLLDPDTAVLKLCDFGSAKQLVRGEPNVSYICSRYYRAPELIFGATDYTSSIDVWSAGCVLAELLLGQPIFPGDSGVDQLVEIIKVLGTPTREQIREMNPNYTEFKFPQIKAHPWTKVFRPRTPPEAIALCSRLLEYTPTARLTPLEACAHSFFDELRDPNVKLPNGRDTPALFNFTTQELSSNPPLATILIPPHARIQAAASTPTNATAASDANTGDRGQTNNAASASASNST
Chain of Glycogen synthase kinase-3 alpha (P49840 whole entry): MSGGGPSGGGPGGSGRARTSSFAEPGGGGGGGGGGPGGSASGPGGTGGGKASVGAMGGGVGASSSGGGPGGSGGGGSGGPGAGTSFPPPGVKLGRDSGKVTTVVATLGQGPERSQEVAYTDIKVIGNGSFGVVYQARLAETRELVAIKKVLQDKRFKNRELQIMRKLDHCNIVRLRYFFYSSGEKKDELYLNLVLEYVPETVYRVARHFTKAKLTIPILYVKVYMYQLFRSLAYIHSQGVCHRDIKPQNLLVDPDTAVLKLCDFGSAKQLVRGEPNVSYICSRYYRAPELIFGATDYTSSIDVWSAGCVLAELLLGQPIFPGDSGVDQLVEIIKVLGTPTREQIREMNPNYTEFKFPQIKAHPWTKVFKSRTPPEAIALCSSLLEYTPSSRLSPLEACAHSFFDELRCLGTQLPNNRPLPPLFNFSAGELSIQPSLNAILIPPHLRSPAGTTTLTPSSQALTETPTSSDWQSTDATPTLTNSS

Row | SMILES | IC50 [1] | IC50 [2]
1 | CCCC(=O)N1CC2(C1)CC1(CO2)C2=C(N=NC2)NC2=C1C(=O)CC(C)(C)C2 (centres undefined) [US20250313563, Compound 947300] | < 100 nM | < 100 nM
2 | CC[C@]1(c2cccc(-c3ccncc3C)c2)C2=CN=NC2NC2=C1C(=O)N[C@]1(CCCOC1)C2 (some centres undefined) [US20250313563, Compound 947911] | < 100 nM | < 100 nM
3 | CC1(C)CC(=O)C2=C(C1)NC1=C(CN=N1)C21COC2(CN(C(=O)CC3CCCC3)C2)C1 (centres undefined) [US20250313563, Compound 947293] | < 100 nM | < 100 nM
4 | CCC1(c2cccc(-c3ccnc(C)c3)c2)C2=C(CC(C)(C)NC2=O)NC2N=NC(Cl)=C21 (centres undefined) [US20250313563, Compound 948998] | < 100 nM and 1000 to 5000 nM | < 100 nM and 100 to 1000 nM
5 | CC[C@@]1(c2cccc(C3CCCC3)c2)C2=CN=NC2NC2=C1C(=O)CC(C)(C)C2 (some centres undefined) [US20250313563, Compound 949399] | > 5000 nM | 1000 to 5000 nM
6 | CC[C@@]1(c2ccccc2)C2=CN=NC2NC2=C1C(=O)C[C@](C)(COC)C2 (some centres undefined) [US20250313563, Compound 816873] | 1000 to 5000 nM | 100 to 1000 nM
7 | CC1(C)CC(=O)C2=C(C1)NC1=C(CN=N1)C21CCN(S(=O)(=O)c2cc(F)ccc2F)CC1 [US20250313563, Compound 948121] | < 100 nM and 100 to 1000 nM | < 100 nM and 100 to 1000 nM
8 | CCN(C(C)=O)c1cccc([C@@]2(CC)C3=CN=NC3NC3=C2C(=O)CC(C)(C)C3)c1 (some centres undefined) [US20250313563, Compound 909214] | < 100 nM | < 100 nM
9 | CC[C@@]1(c2cccc(N3C[C@H](C)[C@@H](C)C3)c2)C2=CN=NC2NC2=C1C(=O)CC(C)(C)C2 (some centres undefined) [US20250313563, Compound 924520] | > 5000 nM | > 5000 nM
10 | CCC1(c2cccc(-c3cc(C)nn3C)c2)C2=C(N=NC2)NC2=C1C(=O)NC(C)(C)C2 (centres undefined) [US20250313563, Compound 943371] | 1000 to 5000 nM | < 100 nM
11 | CC[C@@]1(c2cccc(-c3ccncc3O)c2)C2=CN=NC2NC2=C1C(=O)CC(C)(C)C2 (some centres undefined) [US20250313563, Compound 945724] | < 100 nM and 1000 to 5000 nM | < 100 nM and 100 to 1000 nM
12 | CCC1(c2cccc(-c3ccnc(C)c3F)c2)C2=CN=NC2NC2=C1C(=O)CC(C)(C)C2 (centres undefined) [US20250313563, Compound 918281] | 100 to 1000 nM | < 100 nM
13 | CC[C@@]1(c2cccc(-c3cnn4c3CC(C)(C)CC4)c2)C2=CN=NC2NC2=C1C(=O)NC(C)(C)C2 (some centres undefined) [US20250313563, Compound 950564] | 100 to 1000 nM | < 100 nM
14 | CC(=O)N1CC2(C1)CC1(CO2)C2=C(N=NC2)NC2=C1C(=O)CC(C)(C)C2 (centres undefined) [US20250313563, Compound 913058] | < 100 nM and 100 to 1000 nM | < 100 nM
15 | C[C@@H]1CCC[C@@]12C1=CN=NC1NC1=C2C(=O)CC(C)(C)C1 (some centres undefined) [US20250313563, Compound 874319] | 1000 to 5000 nM | 1000 to 5000 nM
16 | CC[C@]1(c2cccc(-c3cn(C)nc3C)c2)C2=C(CC(C)(C)NC2=O)NC2N=NC(C(F)(F)F)=C21 (some centres undefined) [US20250313563, Compound 948309] | > 5000 nM | 1000 to 5000 nM
17 | CC[C@@]1(c2cccc(N3CCOCC3)c2)C2=C(CC(C)(C)CC2=O)NC2N=NC(C)=C21 (some centres undefined) [US20250313563, Compound 889582] | 1000 to 5000 nM | 100 to 1000 nM
18 | CC[C@@]1(c2cccc(-c3cnn(CCOC)c3)c2)C2=C(CC(C)(C)CC2=O)NC2N=NC(C)=C21 (some centres undefined) [US20250313563, Compound 913027] | < 100 nM | < 100 nM
19 | CC1(C)CC(=O)C2=C(C1)NC1=C(CN=N1)[C@@]21CCN(S(=O)(=O)CC2CC2)C1 [US20250313563, Compound 951724] | < 100 nM | < 100 nM
20 | CCC1(c2cccc(-c3cn(C)nc3C)c2)C2=CN=NC2NC2=C1C(=O)N(C)C(C)(C)C2 (centres undefined) [US20250313563, Compound 948304] | < 100 nM | < 100 nM
21 | CC1(C)CC(=O)C2=C(C1)NC1=C(CN=N1)C21COC2(CN(C(=O)CC3CC3)C2)C1 (centres undefined) [US20250313563, Compound 947298] | < 100 nM | < 100 nM
22 | COc1ccc(S(=O)(=O)N2CCC[C@]3(CC2)C2=CN=NC2NC2=C3C(=O)CC(C)(C)C2)cc1 (some centres undefined) [US20250313563, Compound 932641] | 100 to 1000 nM | < 100 nM
23 | CC[C@@]1(c2cccc(C(F)(F)F)c2)C2=C(N=NC2)NC2=C1C(=O)N[C@H]2C [US20250313563, Compound 945381] | > 5000 nM | > 5000 nM
24 | CC[C@]1(c2cccc(-c3ccncc3F)c2)C2=C(CC(C)(C)NC2=O)NC2N=NC(C(F)(F)F)=C21 (some centres undefined) [US20250313563, Compound 948770] | 100 to 1000 nM | 100 to 1000 nM
25 | CCC1(c2cccc(C(F)(F)F)c2)C2=C(NC3=NN=CC31)c1ccccc1C2=O (centres undefined) [US20250313563, Compound 948205] | < 100 nM and 100 to 1000 nM | < 100 nM and 100 to 1000 nM
26 | CC[C@@]1(c2cccc(-c3cnn4c3CCCC4)c2)C2=C(CC(C)(C)NC2=O)NC2N=NC(C)=C21 (some centres undefined) [US20250313563, Compound 947817] | < 100 nM | < 100 nM

Row | SMILES | IC50 [1] | IC50 [2]
27 | CC[C@]1(c2cccc(C(F)(F)F)c2)C2=C(N=NC2)NC2=C1C(=O)N(Cc1ccccc1)C2 [US20250313563, Compound 929388] | 100 to 1000 nM | < 100 nM and 100 to 1000 nM
28 | CC(C)N1CC2(C1)C1=C(N=NC1)NC1=C2C(=O)CC(C)(C)C1 [US20250313563, Compound 932650] | > 5000 nM | > 5000 nM
29 | CC1(C)CC(=O)C2=C(C1)NC1=C(CN=N1)C21CN(Cc2ccccn2)C1 [US20250313563, Compound 929438] | > 5000 nM | > 5000 nM
30 | CC[C@@]1(c2cccc(-c3ccncc3C)c2)C2=C(CC(C)(C)CC2=O)NC2N=NC(C(F)(F)F)=C21 (some centres undefined) [US20250313563, Compound 947325] | 100 to 1000 nM | < 100 nM
31 | CCc1cc(-c2cccc([C@]3(CC)C4=CN=NC4NC4=C3C(=O)NC(C)(C)C4)c2)ccn1 (some centres undefined) [US20250313563, Compound 948370] | 100 to 1000 nM | < 100 nM
32 | CCC1(c2cccc(S(=O)(=O)Cc3ccccc3)c2)C2=CN=NC2NC2=C1C(=O)CC(C)(C)C2 (centres undefined) [US20250313563, Compound 913258] | < 100 nM | < 100 nM
33 | CC[C@@]1(c2cccc(-c3cc(C)ncc3OC)c2)C2=CN=NC2NC2=C1C(=O)CC(C)(C)C2 (some centres undefined) [US20250313563, Compound 945995] | < 100 nM and 1000 to 5000 nM | < 100 nM and 100 to 1000 nM
34 | C[C@H]1C[C@@]2(CCN1S(=O)(=O)c1ccn(C)n1)C1=C(N=NC1)NC1=C2C(=O)CC(C)(C)C1 [US20250313563, Compound 926832] | 100 to 1000 nM | < 100 nM
35 | CC[C@@]1(c2cccc(N(C)c3cc(C)cc(C)n3)c2)C2=CN=NC2NC2=C1C(=O)CC(C)(C)C2 (some centres undefined) [US20250313563, Compound 945610] | 100 to 1000 nM | < 100 nM
36 | CCC1(c2cccc(C(F)(F)F)c2)C2=C(N=NC2)NC2=C1C(=O)NCCC2 (centres undefined) [US20250313563, Compound 913355] | > 5000 nM | > 5000 nM
37 | CC(=O)N1C[C@@]2(C[C@]3(CO2)C2=C(N=NC2)NC2=C3C(=O)CC(C)(C)C2)[C@@H]1C [US20250313563, Compound 948440] | < 100 nM | < 100 nM
38 | CC(=O)N1C[C@@]2(C[C@@]3(CO2)C2=C(N=NC2)NC2=C3C(=O)CC(C)(C)C2)[C@@H]1C [US20250313563, Compound 948438] | < 100 nM | < 100 nM
39 | CC1(C)CC(=O)C2=C(C1)NC1=C(CN=N1)[C@]21CO[C@H](C2CC2)C1 [US20250313563, Compound 913184] | 1000 to 5000 nM | 100 to 1000 nM
40 | CC[C@@]1(c2cccc(-c3cn(C)nc3C)c2)C2=CN=NC2NC2=C1C(=O)NC(C)(C)C2 (some centres undefined) [US20250313563, Compound 945470] | < 100 nM and 1000 to 5000 nM | < 100 nM and 100 to 1000 nM
41 | CC[C@@]1(c2cccc(-c3cnn(CCN4CCCC4)c3)c2)C2=CN=NC2NC2=C1C(=O)NC(C)(C)C2 (some centres undefined) [US20250313563, Compound 952022] | 1000 to 5000 nM | 100 to 1000 nM
42 | CC[C@@]1(c2ccccc2)C2=C(CC(C)(C)CC2=O)NC2N=NC(C(F)F)=C21 (some centres undefined) [US20250313563, Compound 874510] | 100 to 1000 nM | 100 to 1000 nM
43 | CC1(C)CC(=O)C2=C(C1)NC1=C(CN=N1)[C@]21CCN(S(=O)(=O)c2ccccc2F)C1 [US20250313563, Compound 945718] | < 100 nM and 100 to 1000 nM | < 100 nM
44 | CC[C@@]1(c2cccc(C(F)(F)F)c2)C2=CN=NC2NC2=C1C(=O)N(c1cn(C)c(C)n1)CC2 (some centres undefined) [US20250313563, Compound 952479] | > 5000 nM | > 5000 nM
45 | CC[C@@]1(c2cccc(-c3ncnn3C)c2)C2=CN=NC2NC2=C1C(=O)CC(C)(C)C2 (some centres undefined) [US20250313563, Compound 945482] | > 5000 nM | 1000 to 5000 nM and > 5000 nM
46 | CC[C@]1(c2cccc(C(F)(F)F)c2)C2=C(N=NC2)NC2=C1C(=O)N[C@H]2C [US20250313563, Compound 945379] | 1000 to 5000 nM | 100 to 1000 nM
47 | CC1(C)CC(=O)C2=C(C1)NC1N=NC=C1[C@]21CCCc2ccccc21 (some centres undefined) [US20250313563, Compound 930566] | 100 to 1000 nM | < 100 nM
48 | CC[C@@]1(c2cccc(-c3ccnn3C)c2)C2=CN=NC2NC2=C1C(=O)N[C@@]1(CCOC1)C2 (some centres undefined) [US20250313563, Compound 948015] | < 100 nM | < 100 nM
49 | CCC1(c2cccc(N(C)c3ncccn3)c2)C2=C(CC(C)(C)NC2=O)NC2N=NC(F)=C21 (centres undefined) [US20250313563, Compound 949172] | < 100 nM and 1000 to 5000 nM | < 100 nM and 100 to 1000 nM
50 | CN1C[C@]2(C3=C(CC(C)(C)CC3=O)NC3N=NC(CC(C)(C)C)=C32)c2ccccc21 (some centres undefined) [US20250313563, Compound 125978] | 100 to 1000 nM | 1000 to 5000 nM
51 | CC[C@]1(c2cccc(-c3ccncc3C)c2)C2=CN=NC2NC2=C1C(=O)N[C@]1(CCOC1)C2 (some centres undefined) [US20250313563, Compound 948640] | < 100 nM | < 100 nM
52 | CCC1(c2cccc(N(C)C3CC3)c2)C2=CN=NC2NC2=C1C(=O)CC(C)(C)C2 (centres undefined) [US20250313563, Compound 945466] | 1000 to 5000 nM | 100 to 1000 nM
